Measurements taken from ChEMBL document CHEMBL1201862, “PubChem BioAssay data set” (2004).
Activity calls are given as the source filed them.

Columns and labels:
Paired box protein Pax-8 = Paired box protein Pax-8 (Homo sapiens, UniProt Q06710); assay: PAX8 transcriptional activity inhibition in RMG-I – RMG-I cells, luciferase, cherry-pick, dose response (AID 687027); type: functional, cell-based;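 also: luciferase reporter driven by Pax8 target thyroperoxidase promoter measured by SteadyGlo luminescence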
Paired box protein Pax-8, sequence (Q06710 whole entry): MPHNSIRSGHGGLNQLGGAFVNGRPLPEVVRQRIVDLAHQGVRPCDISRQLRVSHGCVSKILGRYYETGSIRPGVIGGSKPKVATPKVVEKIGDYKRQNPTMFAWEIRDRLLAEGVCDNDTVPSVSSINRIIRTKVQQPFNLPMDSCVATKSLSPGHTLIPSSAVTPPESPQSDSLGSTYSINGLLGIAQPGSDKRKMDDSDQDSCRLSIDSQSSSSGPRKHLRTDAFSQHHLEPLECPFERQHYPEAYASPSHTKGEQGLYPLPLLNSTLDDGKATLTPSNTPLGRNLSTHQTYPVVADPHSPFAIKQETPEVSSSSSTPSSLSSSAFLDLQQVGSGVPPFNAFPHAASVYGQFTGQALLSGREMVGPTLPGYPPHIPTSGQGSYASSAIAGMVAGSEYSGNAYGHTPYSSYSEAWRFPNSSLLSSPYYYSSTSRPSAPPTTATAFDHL

[1] = molecular target: T1, Apoptotic protease-activating factor 1 (Homo sapiens, UniProt O14727); type: functional
T1 sequence (O14727 whole entry): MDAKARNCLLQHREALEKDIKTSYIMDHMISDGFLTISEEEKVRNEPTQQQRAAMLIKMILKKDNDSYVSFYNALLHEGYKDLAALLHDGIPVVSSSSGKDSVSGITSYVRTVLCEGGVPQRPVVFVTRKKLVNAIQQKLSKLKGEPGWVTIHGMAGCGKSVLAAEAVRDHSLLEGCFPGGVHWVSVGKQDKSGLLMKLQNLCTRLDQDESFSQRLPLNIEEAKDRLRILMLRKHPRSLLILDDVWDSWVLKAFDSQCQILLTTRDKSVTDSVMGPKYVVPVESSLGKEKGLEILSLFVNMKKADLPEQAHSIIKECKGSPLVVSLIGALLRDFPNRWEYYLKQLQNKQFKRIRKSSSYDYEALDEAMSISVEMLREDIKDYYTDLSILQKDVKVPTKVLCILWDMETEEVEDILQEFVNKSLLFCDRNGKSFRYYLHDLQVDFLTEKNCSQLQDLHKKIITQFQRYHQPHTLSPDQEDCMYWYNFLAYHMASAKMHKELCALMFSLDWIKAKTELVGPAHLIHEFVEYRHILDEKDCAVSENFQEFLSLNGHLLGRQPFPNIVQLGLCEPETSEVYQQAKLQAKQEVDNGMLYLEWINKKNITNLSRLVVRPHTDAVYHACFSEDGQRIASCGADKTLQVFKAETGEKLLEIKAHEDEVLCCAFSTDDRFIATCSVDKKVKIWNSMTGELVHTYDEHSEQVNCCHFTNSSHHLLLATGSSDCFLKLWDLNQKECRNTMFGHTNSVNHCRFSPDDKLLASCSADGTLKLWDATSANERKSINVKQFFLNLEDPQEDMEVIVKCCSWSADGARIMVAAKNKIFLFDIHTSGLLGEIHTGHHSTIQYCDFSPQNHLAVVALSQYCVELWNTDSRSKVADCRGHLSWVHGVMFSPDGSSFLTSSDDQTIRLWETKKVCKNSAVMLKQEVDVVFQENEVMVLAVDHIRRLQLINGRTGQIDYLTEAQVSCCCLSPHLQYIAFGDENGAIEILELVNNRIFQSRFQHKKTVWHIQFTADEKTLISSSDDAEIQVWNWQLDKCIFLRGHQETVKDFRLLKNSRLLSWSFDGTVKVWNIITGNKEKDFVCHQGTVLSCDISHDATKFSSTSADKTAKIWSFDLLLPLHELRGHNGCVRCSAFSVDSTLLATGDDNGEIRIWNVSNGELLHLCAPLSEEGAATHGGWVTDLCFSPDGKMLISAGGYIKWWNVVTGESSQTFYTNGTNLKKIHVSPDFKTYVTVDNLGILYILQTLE

[2] = molecular target: T2, Sentrin-specific protease 8 (Homo sapiens, UniProt Q96LD8); assay: inhibition of human SENP8 cleavage activity – biochemical, luminescence, SAR follow-up (AID 504501); type: functional
T2 sequence (Q96LD8 whole entry): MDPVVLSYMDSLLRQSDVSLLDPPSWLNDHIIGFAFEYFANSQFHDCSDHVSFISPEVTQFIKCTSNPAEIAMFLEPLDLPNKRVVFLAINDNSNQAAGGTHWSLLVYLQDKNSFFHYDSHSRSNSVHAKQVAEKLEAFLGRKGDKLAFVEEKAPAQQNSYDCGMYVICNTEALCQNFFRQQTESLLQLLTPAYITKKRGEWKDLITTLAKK

[3] = loss of viability in HepG2 cells – cell-based, CellTiter-Glo, cherry-picked, cytotoxicity control for Shn3 inhibitor project, dose response (AID 624134); type: functional
[4] = non-specific 3'UTR reporter inhibition in Clone20-Shn3RL – cell-based, Renilla luciferase, cherry-picked, counter-screen for Shn3 inhibitor project, dose response (AID 624133); type: functional
[5] = reduction of Shn3 3'UTR-driven luciferase in osteoblasts – cell-based, Clone20 osteoblasts, firefly luciferase, cherry-picked, dose response (AID 624132); type: functional;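 also: firefly luciferase luminescence from reporter carrying the Shn3 3'UTR in osteoblasts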
[6] = molecular target: T3, Sphingosine 1-phosphate receptor 4 (Homo sapiens, UniProt O95977); assay: Fluorescence dose response cell-based high throughput screening assay for antagonists of the Sphingosine 1-Phosphate Receptor 4 (S1P4). [Related pubchem assays: 1524 (Confirmation in triplicates.), 1510 (Primary screen.)]; type: functional
T3 sequence (O95977 whole entry): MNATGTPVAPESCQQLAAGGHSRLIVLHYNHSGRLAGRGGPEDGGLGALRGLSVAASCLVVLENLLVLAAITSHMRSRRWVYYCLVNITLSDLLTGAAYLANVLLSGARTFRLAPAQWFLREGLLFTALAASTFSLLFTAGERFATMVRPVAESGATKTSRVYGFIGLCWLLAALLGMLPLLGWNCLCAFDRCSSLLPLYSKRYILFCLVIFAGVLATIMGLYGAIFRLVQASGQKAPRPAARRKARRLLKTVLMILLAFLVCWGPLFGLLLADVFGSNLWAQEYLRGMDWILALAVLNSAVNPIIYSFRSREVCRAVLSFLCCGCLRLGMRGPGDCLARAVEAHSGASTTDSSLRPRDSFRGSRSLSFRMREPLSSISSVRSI

cells = type: functional, cell-based
INS1 = assay: INS-1E survival protection against cytokine death – cell-based, luminescence, retest, dose response (AID 449756); type: functional; settings: Rattus norvegicus;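 also: cell death triggered by IL-1 beta plus TNF-alpha plus IFN-gamma mixture; protective hits raise ATP signal compared with cytokine alone wells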

Compound	AC50 (Paired box protein Pax-8)	IC50 [1]	IC50 [2]	AC50 [3]	AC50 [4]	AC50 [5]	IC50 [6]	EC50 (cells)	AC50 (INS1)
Oc1ccc(/C=N\Nc2cc(N3CCOCC3)nc(N3CCOCC3)n2)c(O)c1	20.4 µM (active)	7.15 µM (active)	> 99 µM (inactive)	–	–	–	–	–	–
COc1cc(NC(=O)Cn2ncc(Cl)c(Cl)c2=O)c(C)cc1[N+](=O)[O-]	4.62 µM (active)	–	–	40.9 µM (active)	3.3 µM (active)	3.44 µM (active)	1.32 µM (active)	–	–
Cc1ccc(C)c(S(=O)(=O)N2CCN(Cc3ccc(O)c4ncccc34)CC2)c1	–	–	–	5.3 µM (active)	1.23 µM (active)	2.84 µM (active)	–	7.58 µM (active)	2.48 µM (active)
